Columns and labels:
Details in all cases: labelled compound; 5 mM MgCl2, 50 mM KCl, Tris-HCl pH 8.0, 37 °C
ICE1056Fin = ICE1056Fin (Haemophilus influenzae, UniProt A0A8I2XW01)
P1 ParB = P1 ParB (Punavirus P1, UniProt Q38420)
RK2 KorB = RK2 KorB (Escherichia coli, UniProt P07674)
Sequence of RK2 KorB (P07674 whole entry): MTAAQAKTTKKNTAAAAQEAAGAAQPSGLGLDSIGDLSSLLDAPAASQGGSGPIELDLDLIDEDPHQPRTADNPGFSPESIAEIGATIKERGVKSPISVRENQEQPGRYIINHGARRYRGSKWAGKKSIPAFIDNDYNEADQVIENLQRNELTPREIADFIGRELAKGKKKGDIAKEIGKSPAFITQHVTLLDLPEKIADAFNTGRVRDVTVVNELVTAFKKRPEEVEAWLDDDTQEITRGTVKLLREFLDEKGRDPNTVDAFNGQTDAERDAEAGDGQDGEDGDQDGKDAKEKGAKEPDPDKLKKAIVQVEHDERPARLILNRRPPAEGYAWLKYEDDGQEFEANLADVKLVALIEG

Sequence of P1 ParB (Q38420 1-333): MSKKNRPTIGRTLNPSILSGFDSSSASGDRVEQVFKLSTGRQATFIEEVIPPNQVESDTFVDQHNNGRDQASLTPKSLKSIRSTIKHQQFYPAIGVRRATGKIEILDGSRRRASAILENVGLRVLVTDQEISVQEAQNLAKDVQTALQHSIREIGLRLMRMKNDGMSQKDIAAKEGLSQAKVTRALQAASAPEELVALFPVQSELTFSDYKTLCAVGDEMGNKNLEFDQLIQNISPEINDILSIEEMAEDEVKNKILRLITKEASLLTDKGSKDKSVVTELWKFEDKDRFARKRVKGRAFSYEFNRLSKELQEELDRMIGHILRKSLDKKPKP
Sequence of ICE1056Fin (A0A8I2XW01 1-185): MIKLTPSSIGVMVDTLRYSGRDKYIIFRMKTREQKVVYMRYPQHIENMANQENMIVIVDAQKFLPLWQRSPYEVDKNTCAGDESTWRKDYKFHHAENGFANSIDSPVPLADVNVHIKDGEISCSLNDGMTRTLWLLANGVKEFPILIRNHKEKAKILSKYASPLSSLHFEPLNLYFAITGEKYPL

SMILES: Nc1ncnc2c1ncn2[C@@H]1O[C@H](COP(=O)(O)OP(=O)(O)OP(=O)(O)O)[C@@H](O)[C@H]1O [ATP]
- TLC ATPase assay, γ-phosphate release (ICE1056Fin): ICE1056Fin, P1 ParB and RK2 KorB also exhibited comparable ATPase activity
- TLC ATPase assay, γ-phosphate release (P1 ParB): ICE1056Fin, P1 ParB and RK2 KorB also exhibited comparable ATPase activity
- TLC ATPase assay, γ-phosphate release (RK2 KorB): ICE1056Fin, P1 ParB and RK2 KorB also exhibited comparable ATPase activity
